Laboratory results from PubChem BioAssay (NCI).
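Values below derive from 48-hour exposures of cells grown in 96-well plates, with endpoints linearly interpolated between the two concentrations bracketing the appropriate inhibition level. TGI is the concentration that stops growth completely.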

Columns and labels:
Test in all cases: NCI anticancer screen, dose series, 48 h
[1] = tested on: U251 CNS
[2] = tested on: MALME-3M melanoma
[3] = tested on: NCI-H23 lung
[4] = tested on: CCRF-CEM leukemia
[5] = tested on: OVCAR-5 ovarian
[6] = tested on: M19-MEL melanoma
[7] = tested on: MOLT-4 leukemia
[8] = tested on: SR leukemia
[9] = tested on: OVCAR-4 ovarian
[10] = tested on: DMS 114 small cell lung
[11] = tested on: NCI-H522 lung
[12] = tested on: HOP-62 NSCLC
[13] = tested on: HCT-116 colon
[14] = tested on: COLO 205 colon
[15] = tested on: OVCAR-8 ovarian
[16] = tested on: SK-OV-3 ovarian
[17] = tested on: EKVX NSCLC
[18] = tested on: SF-268 CNS
[19] = tested on: K-562 leukemia
[20] = tested on: SNB-75 CNS
[21] = tested on: LXFL 529 NSCLC
[22] = tested on: KM12 colon
[23] = tested on: SN12C renal
[24] = tested on: A498 renal
[25] = tested on: SK-MEL-28 melanoma
[26] = tested on: XF 498 CNS
[27] = tested on: RXF 393 renal
[28] = tested on: DLD-1 colon
[29] = tested on: TK-10 renal
[30] = tested on: OVCAR-3 ovarian
[31] = tested on: HCC-2998 colon
[32] = tested on: M14 melanoma
[33] = tested on: UACC-257 melanoma
[34] = tested on: SW-620 colon
[35] = tested on: HT29 colon
[36] = tested on: SF-539 CNS
[37] = tested on: HL-60(TB) leukemia
[38] = tested on: SNB-19 CNS
[39] = tested on: HCT-15 colon
[40] = tested on: NCI-H460 lung
[41] = tested on: SK-MEL-5 melanoma
[42] = tested on: UACC-62 melanoma
[43] = tested on: HOP-92 NSCLC
[44] = tested on: SNB-78 CNS
[45] = tested on: DMS 273 small cell lung
[46] = tested on: A549 NSCLC
[47] = tested on: IGROV1 ovarian
[48] = tested on: SK-MEL-2 melanoma
[49] = tested on: ACHN renal
[50] = tested on: NCI-H226 lung
[51] = tested on: KM20L2 colon
[52] = tested on: SF-295 CNS
[53] = tested on: CAKI-1 renal
[54] = tested on: RPMI-8226 leukemia
[55] = tested on: UO-31 renal
[56] = tested on: HS 578T breast
[57] = tested on: MDA-MB-231 breast
[58] = tested on: T-47D breast
[59] = tested on: PC-3 prostate
[60] = tested on: BT-549 breast
[61] = tested on: MDA-N
[62] = tested on: LOX IMVI melanoma
[63] = tested on: NCI/ADR-RES ovarian
[64] = tested on: MCF7 breast
[65] = tested on: MDA-MB-435
[66] = tested on: 786-0 renal
[67] = tested on: DU-145 prostate

## Nc1nc(SCCNC(=O)CCc2ccc(O)c(I)c2)nc2c1ncn2C1OC(CO)C(O)C1O (centres undefined)
[1]
  TGI: > 100 µM
[2]
  TGI: > 100 µM
[3]
  TGI: > 100 µM
[4]
  TGI: > 100 µM
[5]
  TGI: > 100 µM
[6]
  TGI: > 100 µM
[7]
  TGI: > 100 µM
[8]
  TGI: > 100 µM
[9]
  TGI: > 100 µM
[10]
  TGI: > 100 µM
[11]
  TGI: > 100 µM
[12]
  TGI: > 100 µM
[13]
  TGI: > 100 µM
[14]
  TGI: > 100 µM
[15]
  TGI: > 100 µM
[16]
  TGI: > 100 µM
[17]
  TGI: > 100 µM
[18]
  TGI: > 100 µM
[19]
  TGI: > 100 µM
[20]
  TGI: > 100 µM
[21]
  TGI: > 100 µM
[22]
  TGI: > 100 µM
[23]
  TGI: > 100 µM
[24]
  TGI: > 100 µM
[25]
  TGI: > 100 µM
[26]
  TGI: > 100 µM
[27]
  TGI: > 100 µM
[28]
  TGI: > 100 µM
[29]
  TGI: > 100 µM
[30]
  TGI: > 100 µM
[31]
  TGI: > 100 µM
[32]
  TGI: > 100 µM
[33]
  TGI: > 100 µM
[34]
  TGI: > 100 µM
[35]
  TGI: > 100 µM
[36]
  TGI: > 100 µM
[37]
  TGI: > 100 µM
[38]
  TGI: > 100 µM
[39]
  TGI: > 100 µM
[40]
  TGI: > 100 µM
[41]
  TGI: > 100 µM
[42]
  TGI: > 100 µM
[43]
  TGI: > 100 µM
[44]
  TGI: > 100 µM
[45]
  TGI: > 100 µM
[46]
  TGI: > 100 µM
[47]
  TGI: > 100 µM
[48]
  TGI: > 100 µM
[49]
  TGI: > 100 µM
[50]
  TGI: > 100 µM
[51]
  TGI: > 100 µM
[52]
  TGI: > 100 µM

## CN=c1ssc(=S)n1C(C)C
[3]
  TGI: 80.7 µM
[4]
  TGI: 11.8 µM
[6]
  TGI: 28.6 µM
[7]
  TGI: 51.7 µM
[10]
  TGI: 20.3 µM
[12]
  TGI: 43.7 µM
[13]
  TGI: > 100 µM
[14]
  TGI: 39.4 µM
[53]
  TGI: 88.2 µM
[15]
  TGI: > 100 µM
[17]
  TGI: > 100 µM
[18]
  TGI: > 100 µM
[20]
  TGI: 52.3 µM
[21]
  TGI: 19.9 µM
[54]
  TGI: 60.3 µM
[22]
  TGI: > 100 µM
[25]
  TGI: 9.24 µM
[27]
  TGI: 22.4 µM
[29]
  TGI: > 100 µM
[30]
  TGI: 35 µM
[31]
  TGI: 27.8 µM
[32]
  TGI: 79 µM
[33]
  TGI: 53.5 µM
[34]
  TGI: 20.6 µM
[35]
  TGI: 16.2 µM
[36]
  TGI: 86.6 µM
[37]
  TGI: 14.7 µM
[38]
  TGI: > 100 µM
[40]
  TGI: > 100 µM
[55]
  TGI: > 100 µM
[41]
  TGI: > 100 µM
[42]
  TGI: 31.1 µM
[43]
  TGI: 67.1 µM
[46]
  TGI: > 100 µM
[47]
  TGI: 46.4 µM
[48]
  TGI: > 100 µM
[49]
  TGI: 95.5 µM
[50]
  TGI: > 100 µM
[51]
  TGI: 41.4 µM
[52]
  TGI: > 100 µM

## CCO[C@H]1O[C@@H]2OC3(C)CCC4[C@H](C)CCC([C@H]1C)[C@]42OO3 (some centres undefined)
[1]
  TGI: > 100 µM
[2]
  TGI: > 100 µM
[3]
  TGI: > 100 µM
[4]
  TGI: > 100 µM
[5]
  TGI: > 68.6 µM
[56]
  TGI: > 100 µM
[7]
  TGI: > 100 µM
[8]
  TGI: > 100 µM
[9]
  TGI: > 100 µM
[57]
  TGI: > 100 µM
[58]
  TGI: > 100 µM
[11]
  TGI: > 100 µM
[59]
  TGI: > 100 µM
[12]
  TGI: > 100 µM
[13]
  TGI: > 100 µM
[14]
  TGI: 25.5 µM
[53]
  TGI: > 100 µM
[60]
  TGI: > 100 µM
[15]
  TGI: 51.7 µM
[16]
  TGI: > 100 µM
[17]
  TGI: > 100 µM
[18]
  TGI: > 100 µM
[19]
  TGI: > 100 µM
[20]
  TGI: > 100 µM
[54]
  TGI: > 100 µM
[22]
  TGI: > 100 µM
[23]
  TGI: > 100 µM
[61]
  TGI: > 100 µM
[24]
  TGI: > 100 µM
[25]
  TGI: > 100 µM
[27]
  TGI: > 100 µM
[29]
  TGI: > 100 µM
[30]
  TGI: 99.8 µM
[31]
  TGI: > 100 µM
[32]
  TGI: > 100 µM
[62]
  TGI: > 100 µM
[34]
  TGI: > 100 µM
[63]
  TGI: > 100 µM
[35]
  TGI: > 100 µM
[36]
  TGI: > 100 µM
[37]
  TGI: 13.2 µM
[38]
  TGI: > 100 µM
[39]
  TGI: > 100 µM
[40]
  TGI: > 100 µM
[64]
  TGI: > 100 µM
[55]
  TGI: > 100 µM
[41]
  TGI: > 100 µM
[42]
  TGI: > 100 µM
[43]
  TGI: > 100 µM
[46]
  TGI: > 100 µM
[47]
  TGI: > 100 µM
[65]
  TGI: > 100 µM
[66]
  TGI: > 100 µM
[48]
  TGI: > 100 µM
[49]
  TGI: > 100 µM
[50]
  TGI: > 100 µM
[67]
  TGI: > 100 µM
[52]
  TGI: > 100 µM

## Cc1cc(=O)oc2cc3oc(N(C)c4ccccc4)nc(=O)c3cc12
[1]
  TGI: > 100 µM
[2]
  TGI: > 100 µM
[3]
  TGI: > 100 µM
[4]
  TGI: > 100 µM
[5]
  TGI: > 100 µM
[56]
  TGI: > 100 µM
[7]
  TGI: > 100 µM
[8]
  TGI: > 100 µM
[9]
  TGI: > 100 µM
[57]
  TGI: > 100 µM
[58]
  TGI: > 100 µM
[11]
  TGI: > 100 µM
[59]
  TGI: > 100 µM
[12]
  TGI: > 100 µM
[13]
  TGI: > 100 µM
[14]
  TGI: > 100 µM
[53]
  TGI: > 100 µM
[60]
  TGI: > 100 µM
[15]
  TGI: > 100 µM
[16]
  TGI: > 100 µM
[17]
  TGI: > 100 µM
[18]
  TGI: > 100 µM
[19]
  TGI: > 100 µM
[20]
  TGI: > 100 µM
[54]
  TGI: > 100 µM
[22]
  TGI: > 100 µM
[23]
  TGI: > 100 µM
[61]
  TGI: > 100 µM
[24]
  TGI: > 100 µM
[25]
  TGI: > 100 µM
[27]
  TGI: > 100 µM
[29]
  TGI: > 100 µM
[30]
  TGI: > 100 µM
[31]
  TGI: > 100 µM
[32]
  TGI: > 100 µM
[62]
  TGI: > 100 µM
[33]
  TGI: > 100 µM
[34]
  TGI: > 100 µM
[63]
  TGI: > 100 µM
[35]
  TGI: > 100 µM
[36]
  TGI: > 100 µM
[37]
  TGI: > 100 µM
[38]
  TGI: > 100 µM
[39]
  TGI: > 100 µM
[40]
  TGI: > 100 µM
[64]
  TGI: > 100 µM
[55]
  TGI: > 100 µM
[41]
  TGI: > 100 µM
[42]
  TGI: > 100 µM
[43]
  TGI: > 100 µM
[46]
  TGI: > 100 µM
[47]
  TGI: > 100 µM
[65]
  TGI: > 100 µM
[66]
  TGI: > 100 µM
[48]
  TGI: > 100 µM
[49]
  TGI: > 100 µM
[50]
  TGI: > 100 µM
[67]
  TGI: > 100 µM
[52]
  TGI: > 100 µM
